In US11390625B2, “Aryl-phosphorus-oxygen compound as EGFR kinase inhibitor” (Chia Tai Tianqing Pharmaceutical Group Co., Ltd., priority 2017, dated 2022):

Columns and labels:
[1] = test system: Ba/F3 (EGFR Δ19del/T790M/C797S) cells; assay: Anti-proliferation experiment on cells (2), Ba/F3 (EGFR Δ19del/T790M/C797S); type: cell-based; conditions: Ba/F3 EGFR, 72 h; Ba/F3 cells, 3 days; read-out: anti-proliferation effect on cells Ba/F3(Δ19del/T790M/C797S) IC50
Method: The compounds ware transferred to a 384-well plate, with 125 nL of compound per well. […] After 3 days, 25 μL of detection reagent was added. The plate was incubated at room temperature for 10 minutes and then read with Envision.

[2] = Plasma, tumor and lung exposure in mice of the Ba/F3 CDX efficacy experiment; type: in vivo; conditions: mouse, 15.0 mg/kg/day oral; for concentration at 2 h / Lung, 2 h / Tumor, 2 h: 2 h after administration
Method: On Day 14 after administration to the groups for the efficacy experiment, the plasma was collected from the mice by submandibular blood collection before last administration and 2 hours after last administration, and the plasma samples were collected from the mice at 1 h, 4 h, 8 h and 24 h after administration. About 100 ul of blood was collected each time, placed in an anticoagulation tube, and centrifuged at 8000 rpm for 7 min, to collect plasma, which was stored at −80° C.

[3] = biological target: EGFR (Δ19del/T790M/C797S) (Homo sapiens, UniProt P00533, C797S/T790M, form not given); assay: Enzyme activity experiment (1): EGFR (Δ19del/T790M/C797S) enzyme inhibition; type: biochemical; conditions: read-out: EGFR (Δ19del/T790M/C797S) IC50
Chain of EGFR (Δ19del/T790M/C797S) (P00533 25-1210 T790M/C797S limits assumed, form open): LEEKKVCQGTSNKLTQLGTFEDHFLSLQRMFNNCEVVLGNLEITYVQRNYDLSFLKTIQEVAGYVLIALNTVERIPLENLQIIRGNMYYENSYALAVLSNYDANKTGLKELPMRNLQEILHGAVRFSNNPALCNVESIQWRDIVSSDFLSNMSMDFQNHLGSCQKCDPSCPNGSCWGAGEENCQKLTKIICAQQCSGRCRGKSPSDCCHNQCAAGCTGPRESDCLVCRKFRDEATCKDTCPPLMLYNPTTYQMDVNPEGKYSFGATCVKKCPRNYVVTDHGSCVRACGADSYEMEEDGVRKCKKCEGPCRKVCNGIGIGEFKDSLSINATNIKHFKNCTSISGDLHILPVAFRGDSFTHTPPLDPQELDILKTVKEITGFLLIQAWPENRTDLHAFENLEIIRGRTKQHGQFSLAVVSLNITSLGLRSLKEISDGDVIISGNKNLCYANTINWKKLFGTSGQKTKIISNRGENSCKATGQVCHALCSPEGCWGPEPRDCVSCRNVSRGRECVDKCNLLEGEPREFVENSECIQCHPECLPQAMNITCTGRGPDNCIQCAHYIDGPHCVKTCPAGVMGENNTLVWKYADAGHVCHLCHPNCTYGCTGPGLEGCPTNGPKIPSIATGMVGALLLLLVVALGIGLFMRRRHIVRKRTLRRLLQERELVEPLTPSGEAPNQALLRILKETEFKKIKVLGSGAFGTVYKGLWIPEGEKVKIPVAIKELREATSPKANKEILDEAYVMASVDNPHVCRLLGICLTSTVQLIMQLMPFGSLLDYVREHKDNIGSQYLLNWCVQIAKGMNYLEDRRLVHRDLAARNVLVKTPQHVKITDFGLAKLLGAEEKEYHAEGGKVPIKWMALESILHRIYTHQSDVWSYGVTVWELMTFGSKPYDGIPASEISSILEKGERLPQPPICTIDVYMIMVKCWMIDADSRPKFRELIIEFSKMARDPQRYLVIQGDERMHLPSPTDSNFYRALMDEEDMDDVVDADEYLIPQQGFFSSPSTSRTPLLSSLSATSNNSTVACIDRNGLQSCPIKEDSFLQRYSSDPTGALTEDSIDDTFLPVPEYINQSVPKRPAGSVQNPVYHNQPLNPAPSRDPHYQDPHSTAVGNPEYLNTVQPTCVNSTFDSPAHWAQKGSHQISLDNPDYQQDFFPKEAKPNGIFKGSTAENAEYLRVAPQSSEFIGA
Method: 1) 10 μL of the compounds to be tested and reference compounds diluted to 10 mM were taken into an Echo LDV plate, which were diluted according to the compound profile with Echo.
1) 1×enzyme reaction buffer was prepared: 1× enzyme buffer, 5 mM MgCl2, 1 mM DTT (dithiothreitol), water.
2) A mixed solution of 10 nM enzyme (final concentration of 5 nM) and 2 μM substrate (final concentration of 1 μM) and a solution containing the substrate alone were prepared with the diluted enzyme reaction buffer.
3) 5 μL of the substrate was added into A1-H1, J24-P24 (the number of the well position), and 5 μL of the mixture of the enzyme and substrate was added into the remaining wells.
4) Centrifugation was performed at 1000 rpm at 23° C. for 30 s.
5) Incubation was performed at 23° C. for 15 min.
7) Centrifugation was performed at 1000 rpm at 23° C. for 30 s.
8) Incubation was performed at 23° C. for 60 min.
9) 10 μL of 250 nM TK Antibody-Crypate (a final concentration of 125 nM) and 1×D2 (a final concentration ½ time) prepared with Detection buffer were added.
10) Centrifugation was performed at 1000 rpm at 23° C. for 30 s.
11) Incubation was performed at 23° C. for 60 min.
12) The data was read with Envision, and the ratio was calculated to obtain the IC50 of the compound for inhibiting the enzyme activity.

EGFR (WT) = EGFR (WT) (Homo sapiens (Human), UniProt P00533); assay: Enzyme activity experiment (2): EGFR WT enzyme inhibition; type: biochemical
Chain of EGFR (WT) (P00533 25-1210): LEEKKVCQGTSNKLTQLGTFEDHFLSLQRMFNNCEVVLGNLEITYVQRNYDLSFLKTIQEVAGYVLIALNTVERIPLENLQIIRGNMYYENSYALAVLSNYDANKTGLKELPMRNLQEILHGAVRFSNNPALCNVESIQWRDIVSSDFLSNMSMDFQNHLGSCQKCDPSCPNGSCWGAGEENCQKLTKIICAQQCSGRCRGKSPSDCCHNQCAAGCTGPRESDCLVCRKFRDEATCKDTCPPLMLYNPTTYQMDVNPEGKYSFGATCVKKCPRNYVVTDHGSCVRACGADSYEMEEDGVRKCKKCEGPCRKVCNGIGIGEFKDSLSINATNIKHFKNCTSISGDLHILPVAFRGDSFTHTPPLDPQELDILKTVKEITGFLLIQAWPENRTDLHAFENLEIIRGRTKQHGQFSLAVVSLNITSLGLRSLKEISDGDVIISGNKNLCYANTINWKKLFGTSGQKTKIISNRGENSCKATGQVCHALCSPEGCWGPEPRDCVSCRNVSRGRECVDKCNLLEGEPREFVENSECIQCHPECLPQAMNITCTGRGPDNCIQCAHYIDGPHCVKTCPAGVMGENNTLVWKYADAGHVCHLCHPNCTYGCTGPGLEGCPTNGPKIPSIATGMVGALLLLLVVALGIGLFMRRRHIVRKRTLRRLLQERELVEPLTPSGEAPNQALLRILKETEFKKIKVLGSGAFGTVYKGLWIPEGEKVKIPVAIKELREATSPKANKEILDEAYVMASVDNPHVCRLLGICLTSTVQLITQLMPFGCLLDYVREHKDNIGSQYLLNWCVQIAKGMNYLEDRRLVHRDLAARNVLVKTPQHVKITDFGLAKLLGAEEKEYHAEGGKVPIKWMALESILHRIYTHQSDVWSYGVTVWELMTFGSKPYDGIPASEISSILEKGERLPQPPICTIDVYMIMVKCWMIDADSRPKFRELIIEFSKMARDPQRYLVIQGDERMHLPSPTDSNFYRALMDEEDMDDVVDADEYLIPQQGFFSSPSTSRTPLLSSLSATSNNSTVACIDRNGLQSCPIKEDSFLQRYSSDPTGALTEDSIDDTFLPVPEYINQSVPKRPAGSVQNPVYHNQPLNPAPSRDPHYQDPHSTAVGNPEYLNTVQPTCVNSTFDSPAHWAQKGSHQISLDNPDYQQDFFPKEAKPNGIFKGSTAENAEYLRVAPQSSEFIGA
Method: (§1) 1. Gradient Dilution of the Compound:
(§2) The dilution and transfer of the compounds were completed by Echo by Labcyte Inc., with a three-fold concentration gradient, a total of 11 dose points, and 100 nL of the compounds per well. The maximum concentration of the test compounds in the kinase reaction solutions was 1000 nM. The maximum concentration of the reference compound (Crizotinib & AP26113) in the kinase reaction solution was 1000 nM. The maximum concentration of the reference compound (AZD9291) in the kinase reaction solution was 300 nM.
(§3) The plate was centrifuged at a speed of 1000 rpm for 60 seconds. The test plate was incubated at 23° C. for 15 minutes.
(§4) (3) The test plate was film sealed and incubated at 23° C. for 90 minutes.
(§5) (4) The test plate was added with 2× detection solution (4 nM TK antibody and 125 nM XL665), 10 μL per well, and centrifuged at a speed of 1000 rpm for 60 seconds, and film sealed, which was incubated at 23° C. for 60 minutes.
(§6) (5) The plate was read on the Multi-Mark Detector Envision.

EGFR (C797S/T790M/L858R) = EGFR (C797S/T790M/L858R) (Homo sapiens (Human), UniProt P00533, C797S/L858R/T790M); assay: Enzyme activity experiment (2): EGFR (C797S/T790M/L858R) enzyme inhibition; type: biochemical
Chain of EGFR (C797S/T790M/L858R) (P00533 25-1210 T790M/C797S/L858R): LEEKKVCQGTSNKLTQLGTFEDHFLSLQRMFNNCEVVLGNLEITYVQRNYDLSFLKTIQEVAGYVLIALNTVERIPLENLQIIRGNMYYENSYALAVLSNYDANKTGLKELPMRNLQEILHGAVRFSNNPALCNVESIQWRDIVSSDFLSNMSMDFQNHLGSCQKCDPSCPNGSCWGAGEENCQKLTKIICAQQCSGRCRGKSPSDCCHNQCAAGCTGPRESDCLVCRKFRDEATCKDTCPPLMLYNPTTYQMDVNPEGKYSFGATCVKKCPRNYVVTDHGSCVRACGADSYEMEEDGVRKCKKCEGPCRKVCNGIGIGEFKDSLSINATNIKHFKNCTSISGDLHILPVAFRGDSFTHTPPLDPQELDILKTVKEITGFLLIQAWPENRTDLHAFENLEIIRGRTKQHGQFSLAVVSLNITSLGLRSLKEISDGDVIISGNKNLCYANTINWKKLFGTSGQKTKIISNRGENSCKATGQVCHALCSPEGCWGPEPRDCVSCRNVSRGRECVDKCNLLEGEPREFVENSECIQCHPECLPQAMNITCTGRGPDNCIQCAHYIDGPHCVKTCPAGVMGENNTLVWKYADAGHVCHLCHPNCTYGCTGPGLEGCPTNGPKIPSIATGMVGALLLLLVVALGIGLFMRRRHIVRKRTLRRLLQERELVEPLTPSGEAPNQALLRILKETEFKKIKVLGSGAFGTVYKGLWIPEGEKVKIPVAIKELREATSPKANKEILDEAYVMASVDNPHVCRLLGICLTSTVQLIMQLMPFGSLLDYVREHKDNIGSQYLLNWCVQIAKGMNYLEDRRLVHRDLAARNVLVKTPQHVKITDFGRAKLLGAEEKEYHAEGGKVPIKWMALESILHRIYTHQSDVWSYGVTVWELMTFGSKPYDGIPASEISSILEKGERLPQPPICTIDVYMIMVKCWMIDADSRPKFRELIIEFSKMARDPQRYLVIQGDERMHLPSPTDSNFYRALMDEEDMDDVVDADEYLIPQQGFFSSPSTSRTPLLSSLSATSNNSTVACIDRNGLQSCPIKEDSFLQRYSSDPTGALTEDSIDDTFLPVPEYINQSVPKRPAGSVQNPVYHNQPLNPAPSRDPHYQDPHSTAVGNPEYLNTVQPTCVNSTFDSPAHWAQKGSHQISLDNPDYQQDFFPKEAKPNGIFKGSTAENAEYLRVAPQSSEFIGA
Method: as §1, §2, §3, §4, §5, §6

Row | SMILES | IC50 [1] [nM] | half-life ([2]; BALB/c nude, plasma) [h] | concentration at 2 h ([2]; BALB/c nude, plasma) [µM] | Lung, 2 h [2] [nmol/kg] | Tumor, 2 h [2] [nmol/kg] | IC50 [3] [nM] | IC50 (EGFR (WT)) [nM] | IC50 (EGFR (C797S/T790M/L858R)) [nM] | AUC(0-t) ([2]; BALB/c nude, plasma) [µM·h]
1 | COc1cc(N2CCC(N3CCN(C)CC3)CC2)c(C)cc1Nc1ncc(Br)c(Nc2ccc3nccnc3c2P(C)(C)=O)n1 [Compound 34] | 22 | 10 | 3.55 | 32533 | 16667 | – | – | – | –
2 | CCc1cc(Nc2ncc(Br)c(Nc3ccc4nccnc4c3P(C)(C)=O)n2)c(OC)cc1N1CCC(N2CCN(C)CC2)CC1 [Compound 41] | 9 | 20.5 | 6.99 | 29567 | 18567 | 0.212 | 5.12 | 0.26 | 122
